According to patent publication US8652231B2, “Metal complexes; use thereof for the preparation of compositions for agricultural use” (Timac Argo International, priority 2008, dated 2014):

Assay: Capacity of the test compounds for keeping iron soluble in the presence of calcium
Assay type: physicochemical
Conditions: 20 mg iron per liter, pH 7, 8, 9 and 10, CaCl2 0.020 M, after three days, filtered; FIG. 1
Procedure: For each product tested, four solutions were prepared containing 20 milligrams of iron per liter and having respectively a pH of 7, 8, 9 and 10 (the pH having been adjusted with sodium hydroxide or hydrochloric acid).
Four similar solutions were prepared, each containing calcium chloride CaCl2 (0.020 M).
After three days, these solutions were filtered through filters with a pore size of 0.045 micrometer and the iron content in the […] was determined by inductively coupled plasma emission optical spectroscopy (ICP-EOS).
The amount of iron remaining in solution in the presence of calcium ions was calculated using the following formula:
[formula] in which: [Fe]pHi+Ca represents the concentration of iron in the filtrate from a solution (containing calcium chloride 0.020 M) with pH equal to i, expressed in milligrams per liter; [Fe]pHi represents the concentration of iron in the filtrate from a solution not containing calcium with pH equal to i, expressed in milligrams per liter. Results

Citrate-Fe(III) Complex
iron remaining in solution in the presence of calcium ions: undergoes precipitation in the range of pH between the values of 9 and 10
